Values quoted from earlier work in patent US8962010B2, “Intravaginal drug delivery devices for the delivery of macromolecules and water-soluble drugs” (Warner Chilcott Company, LLC, priority 2007, dated 2015).

Settings: pH 5

**Q.** With `CCN(Cc1cccc(S(=O)(=O)[O-])c1)c1ccc(C(=C2C=CC(=[N+](CC)Cc3cccc(S(=O)(=O)[O-])c3)C=C2)c2ccccc2S(=O)(=O)[O-])cc1.[Na+].[Na+]` [Erioglaucine] as the compound, how does the water solubility read?
**A.** more than 20 % w/w
